Results reported in article PMC9530963, “A cathelicidin antimicrobial peptide from Hydrophis cyanocinctus inhibits Zika virus infection by downregulating expression of a viral entry factor” (The Journal of Biological Chemistry, 2022).

What was measured:
[1] = system: ZIKV; assay: Susceptibility of U251 cells to ZIKV (peptide pretreatment); type: cell-based, ZIKV strain PRVABC59; conditions: 1.25, 2.5, and 5 μM, 2 h before ZIKV MOI = 1; 24 h; Western blot
Procedure: Figure 5 Hc-CATH downregulates AXL in U251 cell.A, schematic diagram of B and C. B, U251 cells were seeded in 24-well plates (5 × 10^4 cells/well) and cultured in DMEM containing 2% FBS. Hc-CATH (1.25, 2.5, and 5 μM) or same volume of PBS (peptide solvent) was added to cells and incubated at 37 °C for 24 h. The level of AXL was tested by Western blot. C, U251 cells were seeded in 8-well cover slip chambers (5 × 10^4 cells/well) and cultured in DMEM containing 2% FBS. Hc-CATH (1.25, 2.5, and 5 μM) or PBS was added to cells and incubated at 37 °C for 24 h. The level of AXL was tested by immunofluorescence staining. The scale bar represents 50 μm. D, schematic diagram of E–G. E–G, U251 cells were seeded in 24-well plates (5 × 10^4 cells/well) and cultured in DMEM containing 2% FBS. Hc-CATH (1.25, 2.5, and 5 μM) or PBS was added to cells and incubated at 37 °C for 2 h. Cells were washed with PBS and incubated with ZIKV (MOI = 1). After incubation at 37 °C for 2 h, cells were washed with PBS and cultured in DMEM containing 2% FBS.
Vero, A549, or U251 cells were incubated with peptide or PBS at 37 °C for 2 h. […]
The effect of Hc-CATH on AXL was further confirmed in A549 and U251 cells. A549 or U251 cells were incubated with Hc-CATH (1.25, 2.5, and 5 μM) or PBS at 37 °C for 24 h, and the level of AXL was detected by WB and IF, respectively. […]

[2] = system: COX-2; assay: Enzymatic activity of COX-2 (inhibitor screening kit); type: biochemical; conditions: 10 μM, incubated with COX-2 at 37 °C for 10 min
Procedure: Figure 6 Hc-CATH downregulates AXL via inhibiting COX-2/PGE2/AC/PKA pathway.A, effect of Hc-CATH on COX-2 protein level. A549 cells were incubated with Hc-CATH (1.25, 2.5, or 5 μM) or PBS (solvent of Hc-CATH) at 37 °C for 24 h, COX-2 protein level was examined by Western blot (upper panel) and analyzed by ImageJ (lower panel). B, effect of Hc-CATH on the enzymatic activity of COX-2. Hc-CATH (1.25, 2.5, 5, and 10 μM) or PBS was incubated with COX-2. After incubation at 37 °C for 10 min, the enzymatic activity of COX-2 was detected by enzyme activity inhibitor screening kit. Celecoxib (COX-2 inhibitor, 100 nM) was used as positive control. C, effect of Hc-CATH on PGE2 production. A549 cells were incubated with Hc-CATH (5 μM) at 37 °C. After incubation for 24 h, the level of PGE2 in the cell supernatant was detected by ELISA. D and E, effect of AC (D) and PKA (E) on Hc-CATH-induced AXL downregulation. […] After incubation for 24 h, AXL protein level was examined by Western blot (upper panel of D and E) and analyzed by ImageJ (lower panel of D and E). ns, not significant, ∗∗p < 0.01, and ∗∗∗p < 0.001.
The effect of Hc-CATH on the enzymatic activity of COX-2 was detected by enzyme activity inhibitor screening kit. […] After incubation at 37 °C for 10 min, the enzymatic activity of COX-2 was detected by the kit. […]

[3] = system: PGE2; assay: PGE2 production in A549 cells (ELISA); type: cell-based, Homo sapiens; conditions: 24 h, cell supernatant
Procedure: Figure 6 Hc-CATH downregulates AXL via inhibiting COX-2/PGE2/AC/PKA pathway.A, effect of Hc-CATH on COX-2 protein level. A549 cells were incubated with Hc-CATH (1.25, 2.5, or 5 μM) or PBS (solvent of Hc-CATH) at 37 °C for 24 h, COX-2 protein level was examined by Western blot (upper panel) and analyzed by ImageJ (lower panel). B, effect of Hc-CATH on the enzymatic activity of COX-2. Hc-CATH (1.25, 2.5, 5, and 10 μM) or PBS was incubated with COX-2. After incubation at 37 °C for 10 min, the enzymatic activity of COX-2 was detected by enzyme activity inhibitor screening kit. Celecoxib (COX-2 inhibitor, 100 nM) was used as positive control. C, effect of Hc-CATH on PGE2 production. A549 cells were incubated with Hc-CATH (5 μM) at 37 °C. After incubation for 24 h, the level of PGE2 in the cell supernatant was detected by ELISA. D and E, effect of AC (D) and PKA (E) on Hc-CATH-induced AXL downregulation. A549 cells were incubated with forskolin (FSK, agonist of AC, 10 μM) or H89 (inhibitor of PKA, 5 μM) at 37 °C. After incubation for 1 h, the culture media were removed, cells were washed three times with PBS, and fresh culture media were added to cells in the presence of Hc-CATH (5 μM). After incubation for 24 h, AXL protein level was examined by Western blot (upper panel of D and E) and analyzed by ImageJ (lower panel of D and E). ns, not significant, ∗∗p < 0.01, and ∗∗∗p < 0.001. […]

[4] = system: ZIKV; assay: ZIKV replication stage, Vero cells (peptide added after infection); type: cell-based, ZIKV strain PRVABC59; conditions: 2.5 μM added after 2 h ZIKV infection (MOI = 1), 48 h, relative to PBS
Procedure: (§1) B–I, Vero (B–G), A549 (H), or U251 (I) cells were incubated with ZIKV (MOI = 1) at 37 °C for 2 h, washed with PBS, and transferred with fresh DMEM containing 2% FBS and Hc-CATH (2.5 μM), AC5 (2.5 μM), LL-37 (2.5 μM), or PBS (solvent of peptide). After culture at 37 °C for 48 h, intracellular ZIKV RNA (B), NS3 protein (C, D, H, and I), E protein level (E, the scale bar represents 50 μm), and extracellular ZIKV titer (F and G) were detected by qPCR, Western blot, immunofluorescence staining, and plaque-forming assay, respectively.
(§2) Vero cells were incubated with ZIKV (MOI = 1) at 37 °C for 2 h, washed three times with PBS, and transferred with fresh DMEM containing 2% FBS and Hc-CATH (2.5 μM), AC5 (2.5 μM), LL-37 (2.5 μM), or PBS. After culture at 37 °C for 48 h, intracellular ZIKV RNA, NS3 protein, E protein, and extracellular ZIKV titer were detected by qPCR, WB, IF, and plaque-forming assay, respectively. The effect of Hc-CATH on ZIKV replication stage was further tested in A549 and U251 cells under the same condition, and intracellular ZIKV NS3 protein was detected by WB.

[5] = system: ZIKV; assay: ZIKV replication stage, A549 cells (peptide added after infection); type: cell-based, ZIKV strain PRVABC59; conditions: 2.5 μM after ZIKV infection, 48 h; NS3 Western blot
Procedure: as §1, §2

[6] = system: ZIKV; assay: ZIKV replication stage, U251 cells (peptide added after infection); type: cell-based, ZIKV strain PRVABC59; conditions: 2.5 μM after ZIKV infection, 48 h; NS3 Western blot
Procedure: as §1, §2

Sequence: KFFKRLLKSVRRAVKKFRKKPRLIGLSTLL [Hc-CATH, cathelicidin antimicrobial peptide identified from the sea snake Hydrophis cyanocinctus]
- susceptibility of U251 cells to ZIKV (NS3 protein) [1]: decreased the susceptibility
- inhibitory rate against COX-2 activity [2]: about 80%
- synthesis of PGE2 [3]: significantly reduced the synthesis of PGE2
- intracellular ZIKV RNA, NS3 protein, E protein, extracellular ZIKV titer, peptide maintained after infection [4]: did not reduce
- ZIKV infection in A549 cells, peptide added after infection [5]: did not inhibit ZIKV infection
- ZIKV infection in U251 cells, peptide added after infection [6]: did not inhibit ZIKV infection
